# In patent publication US20260373101A1, “POLYAMINATED FATTY ACIDS FOR USE AS POTENTIATORS OF ANTIBACTERIAL ACTIVITY” (priority 2023, published 2026):
# pIC50: −log10 of the molar value.
# Assays:
# Format in all cases: cell-based
# [1] = system: Chinese hamster ovary cells (CHO-K1); assay: Toxicity on mammalian cells, WST1 assay; conditions: Cricetulus griseus; CHO-K1 cell viability, WST1, 24 h
# Procedure: The WST1 assay was used to measure the cytotoxic activity of the polyaminated fatty acid compounds. It is a colorimetric assay that measures viability and cell proliferation rate. It is based on the cleavage of colorless tetrazolium salts WST-1 (4-[3-(4-iodophenyl)-2-(4-nitrophenyl)-2H-5-tetrazolio]-1,3-benzene disulfonate) by mitochondrial dehydrogenases into yellow formazan derivative, quantifiable by spectrophotometry at 420-480 nm.
# The WST1 assay was performed on Chinese hamster ovary cells. CHO-K1 cells (ATCC, USA) were maintained in culture in “Mac Coy's 5A” medium supplemented with 10% fetal calf serum, 2 mM L-glutamine and streptomycin penicillin mixture (100 U/ml: 10 μg/ml). Incubation is carried out at 37 °C under CO2 enriched atmosphere (5% by volume) and subcultured every two days.
# Cells are transferred to 96-well plates (25,000 cells/ml) in complete “Mac Coy's 5A medium”, and maintained for 24 h at 37 °C under a humid CO2-enriched atmosphere (5% by volume). Increasing concentrations of given polyaminated fatty acid compounds are added to the wells in duplicate assays and 8 growth controls containing cells in medium alone are included in each assay run. After 24 hours at 37 °C (5% CO2), the culture medium is removed, the cells are rinsed in phosphate buffer (PBS) and 50 μL of PBS containing 10% WST1 reagent is added to each well. After 20 minutes of incubation at 37 °C, the results are read by spectrophotometry at 450 nm.
# The results are expressed as dose-response relationships, modeled by a non-linear regression analysis using TableCurve software. The 50% Inhibitory Concentration (IC50) represents the concentration of polyaminated fatty acid compound capable of reducing cell viability by 50%.
# [2] = system: E. faecalis ATCC29212; assay: Intrinsic antibacterial activity, standard microdilution (CLSI); conditions: Enterococcus faecalis; E. faecalis ATCC29212, compound alone, 24 h, 37 °C
# Procedure: (§1) The bacterial strains used in the examples below are the reference strains P. aeruginosa ATCC27853, E. coli ATCC25922, K. pneumoniae ATCC51296, S. aureus ATCC25923 and E. faecalis ATCC29212. The bacterial strains were previously stored in 15% (v/v) glycerol at −80 °C for cryoprotection. One colony of the fresh culture of each strain was incubated in a culture tube containing 3 ml of Mueller-Hinton broth (MH2) at 37 °C overnight with agitation. This suspension was used for inoculum preparation.
# (§2) The antibacterial activity of said polyaminated fatty acid compounds was measured using a standard microdilution test based on Clinical and Laboratory Standards Institute (CLSI) guidelines. This method was slightly modified by increasing the assay volumes to 200 μl so as to improve reproducibility.
# (§3) A negative control which corresponds to 2 ml of sterile culture medium and a positive control which corresponds to a mixture of 1980 μl of culture medium and 20 μl of bacterial suspension from a thawed biological strain (biological strains are stored at −80 °C in glycerol) were prepared.
# (§4) The tubes were incubated in an incubator shaker “Infors” at 37 °C for 24 hours at 100 round per minute (rpm).
# (§5) The polyaminated fatty acid compounds to be tested were prepared in water at a concentration of 10 mM.
# (§6) The required volume of the microbial suspension to be inoculated was calculated for an optical density (OD) measured corresponding to a value equal to 0.01 in each well by using a spectrophotometer at 600 nm. In the microplate, the first row corresponded to the negative control (200 μl of sterile culture medium in each well), the second row to the positive control (seeded culture medium), the third row was loaded twice with bacterial suspension and with 8 μl of a given polyaminated fatty acid compound in each well. Subsequently, a half-fold cascade dilution was performed from this line. The first column was used as an inhibition control. A sterile filter was then placed on the microplate allowing the passage of gases but not contaminants. The microplate was incubated at 37 °C in a humid atmosphere for 24 hours. After 24 hours of incubation, an optical density measurement was performed by taking 100 μl of the bacterial suspension diluted in 900 μl of sterile culture medium.
# (§7) The medium used was Mueller-Hinton medium (MH) for bacteria. All tests were performed in duplicate.
# (§8) Table 1 below reports the intrinsic antibacterial activity of some polymaminated fatty acids prepared in example 1 (MIC in μM) as well as their toxicity towards eucaryotic cells (IC50 in μM).
# [3] = system: S. aureus ATCC25923; assay: as above; conditions: Staphylococcus aureus; S. aureus ATCC25923, compound alone, 24 h, 37 °C
# Procedure: as §1, §2, §3, §4, §5, §6, §7, §8
# [4] = system: P. aeruginosa ATCC27853; assay: as above; conditions: Pseudomonas aeruginosa; P. aeruginosa ATCC27853, compound alone, 24 h, 37 °C
# Procedure: as §1, §2, §3, §4, §5, §6, §7, §8
# [5] = system: E. coli ATCC28922; assay: as above; conditions: Escherichia coli, ATCC28922, 24 h
# [6] = system: P. aeruginosa ATCC27853; assay: Antibacterial activity in combination with doxycycline; conditions: Pseudomonas aeruginosa, 24 h
# Procedure: (§9) 100 μl of a liquid culture medium is deposited in each well of a 96-well microplate, and then inoculated with the bacterial suspension of example 2.1 prepared for the positive control. The volume needed to inoculate is calculated for an OD of 0.01 which corresponds to approximately 5,106 bacteria in each well. In this plate, the first row corresponds to a negative control (200 μl of sterile culture medium in each well), the second row to a positive control (100 μl of sterile culture medium with 100 μl of the bacterial suspension), the third row contains 192 μl of culture medium and 8 μl of polyaminated fatty acid compound to be tested in each well. Subsequently, a cascade dilution is performed from this line. Next, 3-8 μl of a doxycycline solution (1 mg dissolved in 20 ml) is added to each well of the lines to obtain a final antibiotic concentration of 2 μg/ml. Then, 92 μl of bacterial suspension is added to lines 3 to 8. The MIC with a concentration of doxycycline of 2 μg/ml in the presence of X μg/ml of polyaminated fatty acid compound is determined after 24 hours of incubation at 37 °C in a humid atmosphere.
# The table 2 below reports the antibacterial activity (MIC in μM) of a combination of some polyaminated fatty acids prepared in example 1 with two antibacterial drugs doxycycline and erythromycin. […] On the Gram-negative strain of E. coli ([…]), erythromycin has a MIC of 50 μg/ml.
# [7] = system: E. coli ATCC28922; assay: Antibacterial activity in combination with erythromycin; conditions: Escherichia coli, ATCC28922, 24 h
# Procedure: as §9
# The table 2 below reports the antibacterial activity (MIC in μM) of a combination of some polyaminated fatty acids prepared in example 1 with two antibacterial drugs doxycycline and erythromycin. […]
# [8] = system: P. aeruginosa PA0509; assay: Potentiation of known antibiotics (MIC of antibiotic alone or with PAFA); conditions: Pseudomonas aeruginosa, PA0509, 24 h
# Procedure: (§10) 100 μl of a liquid culture medium is deposited in each well of a 96-well microplate, and then inoculated with the bacterial suspension of example 2.1 prepared for the positive control. The volume needed to inoculate is calculated for an OD of 0.01 which corresponds to approximately 5,106 bacteria in each well. In this plate, the first row corresponds to a negative control (200 μl of sterile culture medium in each well), the second row to a positive control (100 μl of sterile culture medium with 100 μl of the bacterial suspension), the third row contains 192 μl of culture medium and 8 μl of an antibiotic solution (10 mg/ml) to be tested in each well. Subsequently, a cascade dilution is performed from this line. Next, 10 μl of a fatty acid solution (10 μM final concentration) is added to each well of the lines. Then, 90 μl of bacterial suspension is added to lines 3 to 8. The MIC of the antibiotic tested is determined after 24 hours of incubation at 37 °C in a humid atmosphere.
# (§11) The table 3 below reports the antibacterial activity (MIC in μg/mL) of a combination of some polyaminated fatty acids prepared in example 1 with various antibacterial drugs: doxycycline (DOX), tetracycline (TET), oxytetracycline (OXY) and minocycline (MINO), against various bacterial strains of P. aeruginosa (PA01, PA0509, and PA263), and of E. coli (AG-100 and AG-100A).
# [9] = system: P. aeruginosa PA263; assay: as above; conditions: Pseudomonas aeruginosa, PA263, 24 h, 24 h
# Procedure: as §10, §11
# [10] = system: E. coli AG-100; assay: as above; conditions: Escherichia coli, AG100, 24 h
# Procedure: as §10, §11
# [11] = system: P. aeruginosa PA01; assay: as above; conditions: Pseudomonas aeruginosa, PA01, 24 h
# Procedure: as §10, §11
# [12] = system: E. coli AG-100A; assay: as above; conditions: Escherichia coli, AG100A, 24 h
# Procedure: as §10, §11
# [13] = P. aeruginosa ATCC27853 + Doxycycline (2 μg/ml)
structure (smiles),measurement,setting,value
CCCCC/C=C\C/C=C\CCCCCCCC(=O)NCCCNCCCN [PAFA11],pIC50,[1],4.68
same,MIC,[2],12.5 µM
same,MIC,[3],12.5 µM
same,MIC,[4],25 µM
same,MIC,[5],100 µM
same,MIC,[6]; [13],12.5 µM
CCCCC/C=C\C/C=C\CCCCCCCC(=O)NCCCCN [PAFA8],MIC,[2],> 200 µM
same,MIC,[3],200 µM
same,MIC,[4],> 200 µM
same,MIC,[5],> 200 µM
CC[C@H]1OC(=O)[C@H](C)[C@@H](O[C@H]2C[C@@](C)(OC)[C@@H](O)[C@H](C)O2)[C@H](C)[C@@H](O[C@@H]2O[C@H](C)C[C@H](N(C)C)[C@H]2O)[C@](C)(O)C[C@@H](C)C(=O)[C@H](C)[C@@H](O)[C@]1(C)O [erythromycin],MIC,[7],50 µg/mL
"C[C@H]1c2cccc(O)c2C(=O)C2=C(O)[C@]3(O)C(=O)C(C(N)=O)=C(O)[C@@H](N(C)C)[C@@H]3[C@@H](O)[C@@H]21 [DOX, doxycycline]",MIC,[8],1 µg/mL
same,MIC,"[8]; MIC of antibiotic, PA0509, +PAFA10 (10 μM), 24 h",0.25 µg/mL
same,MIC,"[8]; MIC of antibiotic, PA0509, +PAFA11 (10 μM), 24 h",0.25 µg/mL
same,MIC,"[8]; MIC of antibiotic, PA0509, +PAFA14 (10 μM), 24 h",0.125 µg/mL
same,MIC,"[9]; MIC of antibiotic, PA263, +PAFA10 (10 μM)",8 µg/mL
same,MIC,"[9]; MIC of antibiotic, PA263, +PAFA11 (10 μM)",4 µg/mL
same,MIC,"[9]; MIC of antibiotic, PA263, +PAFA14 (10 μM)",1 µg/mL
same,MIC,"[9]; PA263, Antibiotic alone",32 µg/mL
same,MIC,"[10]; AG-100, Antibiotic alone",1 µg/mL
same,MIC,"[10]; MIC of antibiotic, AG-100, +PAFA10 (10 μM)",0.25 µg/mL
same,MIC,"[10]; MIC of antibiotic, AG-100, +PAFA11 (10 μM)",0.25 µg/mL
same,MIC,"[10]; MIC of antibiotic, AG-100, +PAFA14 (10 μM)",0.008 µg/mL
same,MIC,"[11]; MIC of antibiotic, PA01, +PAFA10 (10 μM)",2 µg/mL
same,MIC,"[11]; MIC of antibiotic, PA01, +PAFA11 (10 μM)",2 µg/mL
same,MIC,"[11]; MIC of antibiotic, PA01, +PAFA14 (10 μM)",0.125 µg/mL
same,MIC,"[11]; PA01, Antibiotic alone",32 µg/mL
same,MIC,[12]; Antibiotic alone,0.5 µg/mL
same,MIC,"[12]; MIC of antibiotic, +PAFA10 (10 μM)",0.25 µg/mL
same,MIC,"[12]; MIC of antibiotic, +PAFA11 (10 μM)",0.25 µg/mL
same,MIC,"[12]; MIC of antibiotic, +PAFA14 (10 μM)",0.008 µg/mL
same,MIC,"[6]; antibiotic alone, P. aeruginosa ATCC27853",32 µg/mL
CCCCC/C=C\C/C=C\CCCCCCCC(=O)NCCCN(CCCN)CCCN [PAFA10],pIC50,[1],4.10
same,MIC,[2],25 µM
same,MIC,[3],25 µM
same,MIC,[4],25 µM
same,MIC,[5],> 200 µM
same,MIC,[6]; [13],12.5 µM
CCCCC/C=C\C/C=C\CCCCCCCC(=O)NCCCN(C)CCCN [PAFA9],pIC50,[1],4.08
same,MIC,[2],50 µM
same,MIC,[3],50 µM
same,MIC,[4],200 µM
same,MIC,[5],25 µM
same,MIC,[6]; [13],25 µM
CCCCC/C=C\C/C=C\CCCCCCCC(=O)NCCNCCNCCN [PAFA12],pIC50,[1],3.78
same,MIC,[2],100 µM
same,MIC,[3],200 µM
same,MIC,[4],100 µM
same,MIC,[5],50 µM
same,MIC,[6]; [13],50 µM
CCCCC/C=C\C/C=C\CCCCCCCC(=O)NCCCNCCCCNCCCN [PAFA14],pIC50,[1],4.01
same,MIC,[2],12.5 µM
same,MIC,[3],12.5 µM
same,MIC,[4],100 µM
same,MIC,[5],25 µM
same,MIC,[6]; [13],6.25 µM
